Source: ChEMBL document CHEMBL5653631, “A Potent and Selective ULK1 Inhibitor Suppresses Autophagy and Sensitizes Cancer Cells to Nutrient Stress” (iScience, 2018)
Blank lines part the entries; values can stand above or below the compound they belong to.

Columns and labels:
[1] = molecular target: Serine/threonine-protein kinase PAK 2 (Homo sapiens) (UniProt Q13177); experiment: Inhibition of human recombinant PAK2 at 500 nM in presence of ATP by radiometric assay relative to control
[2] = molecular target: Death-associated protein kinase 2 (Homo sapiens) (UniProt Q9UIK4); experiment: Inhibition of human recombinant DAPK2 at 500 nM related to control ULK1
Sequence of Death-associated protein kinase 2 (Homo sapiens) (Q9UIK4 whole entry, looked up): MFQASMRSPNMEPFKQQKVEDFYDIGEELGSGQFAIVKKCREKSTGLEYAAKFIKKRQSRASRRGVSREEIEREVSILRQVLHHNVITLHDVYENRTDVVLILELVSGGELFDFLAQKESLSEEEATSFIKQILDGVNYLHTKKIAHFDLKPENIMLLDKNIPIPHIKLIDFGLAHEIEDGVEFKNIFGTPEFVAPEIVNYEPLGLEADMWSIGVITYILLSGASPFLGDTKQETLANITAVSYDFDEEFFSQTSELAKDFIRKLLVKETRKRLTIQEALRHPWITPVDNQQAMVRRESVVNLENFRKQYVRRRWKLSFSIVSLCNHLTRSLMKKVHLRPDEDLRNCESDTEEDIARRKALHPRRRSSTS

[3] = molecular target: Receptor-type tyrosine-protein kinase FLT3 (Homo sapiens) (UniProt P36888); experiment: Inhibition of human recombinant FLT3 at 500 nM related to control ULK1
[4] = molecular target: Mitogen-activated protein kinase 9 (Homo sapiens) (UniProt P45984); experiment: Inhibition of human recombinant JNK2 at 500 nM related to control ULK1
Sequence of Mitogen-activated protein kinase 9 (Homo sapiens) (P45984 whole entry, looked up): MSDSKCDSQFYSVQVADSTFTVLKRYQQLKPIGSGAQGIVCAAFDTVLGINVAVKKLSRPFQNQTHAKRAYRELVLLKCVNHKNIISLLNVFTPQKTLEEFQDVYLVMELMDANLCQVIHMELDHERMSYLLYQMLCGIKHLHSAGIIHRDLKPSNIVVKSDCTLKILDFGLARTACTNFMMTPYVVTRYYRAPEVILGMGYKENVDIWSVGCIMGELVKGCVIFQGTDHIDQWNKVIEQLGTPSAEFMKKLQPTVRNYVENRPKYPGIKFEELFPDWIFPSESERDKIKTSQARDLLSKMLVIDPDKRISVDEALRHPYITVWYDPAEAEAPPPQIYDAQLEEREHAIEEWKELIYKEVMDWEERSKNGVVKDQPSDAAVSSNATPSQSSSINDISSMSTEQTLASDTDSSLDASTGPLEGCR

[5] = molecular target: Protein kinase C delta type (Homo sapiens) (UniProt Q05655); experiment: Inhibition of human recombinant PKCd at 500 nM in presence of ATP by radiometric assay relative to control
[6] = molecular target: Mitogen-activated protein kinase kinase kinase kinase 1 (Homo sapiens) (UniProt Q92918); experiment: Inhibition of human recombinant HPK1 at 500 nM related to control ULK1
[7] = molecular target: T1, Serine/threonine-protein kinase Sgk2 (Homo sapiens) (UniProt Q9HBY8); experiment: Inhibition of human recombinant SGK2 at 500 nM related to control ULK1
T1 sequence (whole entry): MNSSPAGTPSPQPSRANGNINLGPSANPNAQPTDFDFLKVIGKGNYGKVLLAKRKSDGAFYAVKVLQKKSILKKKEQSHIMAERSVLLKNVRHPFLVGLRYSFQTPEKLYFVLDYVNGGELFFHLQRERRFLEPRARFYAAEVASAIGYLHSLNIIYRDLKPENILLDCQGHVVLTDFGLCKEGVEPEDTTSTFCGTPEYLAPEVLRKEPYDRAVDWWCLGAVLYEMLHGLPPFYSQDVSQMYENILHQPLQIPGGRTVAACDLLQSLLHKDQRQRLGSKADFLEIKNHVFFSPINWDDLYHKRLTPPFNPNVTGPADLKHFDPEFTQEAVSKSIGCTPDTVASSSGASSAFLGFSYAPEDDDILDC

[8] = molecular target: Tyrosine-protein kinase Tec (Homo sapiens) (UniProt P42680); experiment: Inhibition of human recombinant TEC at 15 nM in presence of ATP by radiometric assay relative to control
Sequence of Tyrosine-protein kinase Tec (Homo sapiens) (P42680 whole entry, looked up): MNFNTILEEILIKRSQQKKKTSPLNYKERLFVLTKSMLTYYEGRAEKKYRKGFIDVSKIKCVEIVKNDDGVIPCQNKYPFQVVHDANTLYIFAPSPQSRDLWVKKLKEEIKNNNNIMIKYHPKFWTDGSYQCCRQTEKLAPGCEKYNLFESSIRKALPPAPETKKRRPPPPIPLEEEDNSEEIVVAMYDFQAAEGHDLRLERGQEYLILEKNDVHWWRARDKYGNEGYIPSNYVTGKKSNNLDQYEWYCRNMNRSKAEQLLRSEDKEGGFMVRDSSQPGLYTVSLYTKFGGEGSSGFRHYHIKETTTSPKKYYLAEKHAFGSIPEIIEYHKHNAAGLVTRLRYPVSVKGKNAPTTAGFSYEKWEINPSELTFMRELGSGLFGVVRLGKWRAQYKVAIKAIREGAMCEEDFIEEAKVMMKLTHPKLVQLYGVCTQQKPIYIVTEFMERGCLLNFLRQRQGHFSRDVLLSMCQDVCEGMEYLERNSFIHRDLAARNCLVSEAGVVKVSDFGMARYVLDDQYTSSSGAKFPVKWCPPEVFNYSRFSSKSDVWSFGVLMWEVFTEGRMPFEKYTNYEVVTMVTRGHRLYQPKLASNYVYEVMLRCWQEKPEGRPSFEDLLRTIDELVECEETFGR

[9] = molecular target: Focal adhesion kinase 1 (Homo sapiens) (UniProt Q05397); experiment: Inhibition of human recombinant FAK at 15 nM related to control ULK1
Sequence of Focal adhesion kinase 1 (Homo sapiens) (Q05397 2-1052 limits assumed): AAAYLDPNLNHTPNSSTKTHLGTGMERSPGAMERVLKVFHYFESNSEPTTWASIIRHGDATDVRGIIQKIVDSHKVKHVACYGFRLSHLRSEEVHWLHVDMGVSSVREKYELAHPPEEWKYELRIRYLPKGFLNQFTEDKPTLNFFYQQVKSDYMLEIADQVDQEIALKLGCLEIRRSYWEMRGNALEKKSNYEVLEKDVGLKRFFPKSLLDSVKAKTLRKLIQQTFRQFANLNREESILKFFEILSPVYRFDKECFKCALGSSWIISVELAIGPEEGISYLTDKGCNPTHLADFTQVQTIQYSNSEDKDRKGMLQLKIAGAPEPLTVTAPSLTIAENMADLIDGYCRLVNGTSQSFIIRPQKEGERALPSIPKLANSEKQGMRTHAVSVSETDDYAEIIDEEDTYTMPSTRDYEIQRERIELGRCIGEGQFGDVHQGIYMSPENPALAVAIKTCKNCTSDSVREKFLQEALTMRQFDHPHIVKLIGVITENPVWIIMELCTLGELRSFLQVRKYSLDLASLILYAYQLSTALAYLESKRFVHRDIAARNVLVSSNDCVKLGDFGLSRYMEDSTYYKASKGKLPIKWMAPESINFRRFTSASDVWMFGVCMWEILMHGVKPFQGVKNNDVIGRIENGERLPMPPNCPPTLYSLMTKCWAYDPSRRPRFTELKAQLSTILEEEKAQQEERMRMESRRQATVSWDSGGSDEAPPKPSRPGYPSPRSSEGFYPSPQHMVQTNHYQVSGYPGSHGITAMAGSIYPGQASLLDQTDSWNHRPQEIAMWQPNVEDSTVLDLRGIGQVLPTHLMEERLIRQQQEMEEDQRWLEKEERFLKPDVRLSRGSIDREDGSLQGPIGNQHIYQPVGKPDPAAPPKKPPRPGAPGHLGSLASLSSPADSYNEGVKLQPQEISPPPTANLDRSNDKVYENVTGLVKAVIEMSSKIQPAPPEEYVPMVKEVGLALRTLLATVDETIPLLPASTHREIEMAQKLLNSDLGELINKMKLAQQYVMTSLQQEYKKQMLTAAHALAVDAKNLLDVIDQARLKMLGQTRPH

[10] = molecular target: Mitogen-activated protein kinase 1 (Homo sapiens) (UniProt P28482); experiment: Inhibition of human recombinant Erk2 at 15 nM in presence of ATP by radiometric assay relative to control
Sequence of Mitogen-activated protein kinase 1 (Homo sapiens) (P28482 whole entry): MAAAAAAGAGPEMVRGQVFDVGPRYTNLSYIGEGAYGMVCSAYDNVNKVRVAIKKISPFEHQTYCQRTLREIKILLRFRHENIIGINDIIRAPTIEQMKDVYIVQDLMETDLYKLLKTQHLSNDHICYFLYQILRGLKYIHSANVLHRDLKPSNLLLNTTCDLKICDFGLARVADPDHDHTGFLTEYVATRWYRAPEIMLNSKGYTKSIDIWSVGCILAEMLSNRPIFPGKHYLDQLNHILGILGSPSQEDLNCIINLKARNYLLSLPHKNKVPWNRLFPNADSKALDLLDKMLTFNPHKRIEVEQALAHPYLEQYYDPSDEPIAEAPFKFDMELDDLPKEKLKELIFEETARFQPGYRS

[11] = molecular target: Serine/threonine-protein kinase VRK2 (Homo sapiens) (UniProt Q86Y07); experiment: Inhibition of human recombinant VRK2 at 15 nM in presence of ATP by radiometric assay relative to control
Sequence of Serine/threonine-protein kinase VRK2 (Homo sapiens) (Q86Y07 whole entry): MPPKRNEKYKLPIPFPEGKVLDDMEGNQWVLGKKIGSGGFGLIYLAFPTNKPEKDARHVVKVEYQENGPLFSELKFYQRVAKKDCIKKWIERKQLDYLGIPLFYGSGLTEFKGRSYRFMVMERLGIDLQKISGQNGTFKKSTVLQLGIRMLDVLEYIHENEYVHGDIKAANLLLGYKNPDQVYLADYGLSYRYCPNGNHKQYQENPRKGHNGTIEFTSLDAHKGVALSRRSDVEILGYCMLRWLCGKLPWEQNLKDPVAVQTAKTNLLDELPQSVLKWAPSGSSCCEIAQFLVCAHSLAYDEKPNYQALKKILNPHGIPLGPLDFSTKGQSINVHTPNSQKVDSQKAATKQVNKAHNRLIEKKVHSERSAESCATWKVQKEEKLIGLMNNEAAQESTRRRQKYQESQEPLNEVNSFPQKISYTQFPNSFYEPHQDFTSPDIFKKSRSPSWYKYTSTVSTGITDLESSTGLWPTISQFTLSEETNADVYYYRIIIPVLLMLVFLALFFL

[12] = molecular target: Serine/threonine-protein kinase PLK3 (Homo sapiens) (UniProt Q9H4B4); experiment: Inhibition of human recombinant PLK3 at 15 nM related to control ULK1
Sequence of Serine/threonine-protein kinase PLK3 (Homo sapiens) (Q9H4B4 whole entry, looked up): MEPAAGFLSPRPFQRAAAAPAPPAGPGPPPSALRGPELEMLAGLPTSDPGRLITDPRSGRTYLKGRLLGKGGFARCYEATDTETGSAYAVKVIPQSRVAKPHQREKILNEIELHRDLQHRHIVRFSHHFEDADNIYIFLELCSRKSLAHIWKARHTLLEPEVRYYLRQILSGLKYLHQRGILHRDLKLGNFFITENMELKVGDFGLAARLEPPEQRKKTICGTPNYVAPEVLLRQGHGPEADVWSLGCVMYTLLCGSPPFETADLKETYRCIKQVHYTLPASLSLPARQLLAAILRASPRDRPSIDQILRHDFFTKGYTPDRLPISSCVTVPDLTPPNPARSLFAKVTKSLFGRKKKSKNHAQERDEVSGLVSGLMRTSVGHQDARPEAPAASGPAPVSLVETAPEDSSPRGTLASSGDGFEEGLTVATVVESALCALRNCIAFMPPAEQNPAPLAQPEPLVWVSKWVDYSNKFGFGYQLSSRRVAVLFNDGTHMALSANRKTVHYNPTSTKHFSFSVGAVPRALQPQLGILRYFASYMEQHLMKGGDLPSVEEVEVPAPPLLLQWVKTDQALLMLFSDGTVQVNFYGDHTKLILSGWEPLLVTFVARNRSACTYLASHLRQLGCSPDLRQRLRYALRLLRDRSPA

[13] = molecular target: Misshapen-like kinase 1 (Homo sapiens) (UniProt Q8N4C8); experiment: Inhibition of human recombinant MINK at 40 nM in presence of ATP by radiometric assay relative to control
[14] = molecular target: Cyclin-dependent kinase 18 (Homo sapiens) (UniProt Q07002); experiment: Inhibition of human recombinant PCTAIRE3 at 40 nM in presence of ATP by radiometric assay relative to control
Sequence of Cyclin-dependent kinase 18 (Homo sapiens) (Q07002 whole entry): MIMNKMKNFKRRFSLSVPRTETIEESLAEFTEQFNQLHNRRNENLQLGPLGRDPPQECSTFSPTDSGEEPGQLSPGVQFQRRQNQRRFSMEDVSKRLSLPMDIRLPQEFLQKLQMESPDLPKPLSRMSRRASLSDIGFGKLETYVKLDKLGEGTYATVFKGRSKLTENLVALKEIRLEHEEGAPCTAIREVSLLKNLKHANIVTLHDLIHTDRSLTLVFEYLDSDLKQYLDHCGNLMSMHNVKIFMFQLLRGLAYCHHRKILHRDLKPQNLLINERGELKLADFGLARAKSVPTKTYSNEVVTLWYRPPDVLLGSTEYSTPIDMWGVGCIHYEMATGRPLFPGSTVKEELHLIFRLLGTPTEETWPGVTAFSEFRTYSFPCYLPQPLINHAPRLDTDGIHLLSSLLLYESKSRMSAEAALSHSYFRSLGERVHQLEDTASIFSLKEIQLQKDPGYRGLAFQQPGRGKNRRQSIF

[15] = molecular target: T2, Dual specificity tyrosine-phosphorylation-regulated kinase 2 (Homo sapiens) (UniProt Q92630); experiment: Inhibition of human recombinant DYRK2 at 40 nM related to control ULK1
T2 sequence (whole entry): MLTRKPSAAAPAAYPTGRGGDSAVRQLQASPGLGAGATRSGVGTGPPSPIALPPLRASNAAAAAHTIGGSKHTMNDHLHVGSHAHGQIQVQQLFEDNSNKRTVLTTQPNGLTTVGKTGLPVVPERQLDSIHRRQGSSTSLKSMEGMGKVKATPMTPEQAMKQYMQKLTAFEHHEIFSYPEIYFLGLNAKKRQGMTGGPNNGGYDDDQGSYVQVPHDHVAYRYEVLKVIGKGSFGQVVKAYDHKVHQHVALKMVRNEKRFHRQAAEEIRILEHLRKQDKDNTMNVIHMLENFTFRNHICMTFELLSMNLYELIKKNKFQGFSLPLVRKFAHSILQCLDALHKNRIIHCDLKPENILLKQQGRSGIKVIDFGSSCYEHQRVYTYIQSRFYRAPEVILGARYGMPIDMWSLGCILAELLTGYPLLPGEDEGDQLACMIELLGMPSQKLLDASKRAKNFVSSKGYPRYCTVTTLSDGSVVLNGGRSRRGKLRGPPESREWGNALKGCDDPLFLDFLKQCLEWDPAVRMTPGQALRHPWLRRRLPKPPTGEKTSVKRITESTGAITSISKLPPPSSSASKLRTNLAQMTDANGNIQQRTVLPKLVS

[16] = molecular target: T3, Protein kinase C epsilon type (Homo sapiens) (UniProt Q02156); experiment: Inhibition of human recombinant PKCe at 40 nM related to control ULK1
T3 sequence (whole entry): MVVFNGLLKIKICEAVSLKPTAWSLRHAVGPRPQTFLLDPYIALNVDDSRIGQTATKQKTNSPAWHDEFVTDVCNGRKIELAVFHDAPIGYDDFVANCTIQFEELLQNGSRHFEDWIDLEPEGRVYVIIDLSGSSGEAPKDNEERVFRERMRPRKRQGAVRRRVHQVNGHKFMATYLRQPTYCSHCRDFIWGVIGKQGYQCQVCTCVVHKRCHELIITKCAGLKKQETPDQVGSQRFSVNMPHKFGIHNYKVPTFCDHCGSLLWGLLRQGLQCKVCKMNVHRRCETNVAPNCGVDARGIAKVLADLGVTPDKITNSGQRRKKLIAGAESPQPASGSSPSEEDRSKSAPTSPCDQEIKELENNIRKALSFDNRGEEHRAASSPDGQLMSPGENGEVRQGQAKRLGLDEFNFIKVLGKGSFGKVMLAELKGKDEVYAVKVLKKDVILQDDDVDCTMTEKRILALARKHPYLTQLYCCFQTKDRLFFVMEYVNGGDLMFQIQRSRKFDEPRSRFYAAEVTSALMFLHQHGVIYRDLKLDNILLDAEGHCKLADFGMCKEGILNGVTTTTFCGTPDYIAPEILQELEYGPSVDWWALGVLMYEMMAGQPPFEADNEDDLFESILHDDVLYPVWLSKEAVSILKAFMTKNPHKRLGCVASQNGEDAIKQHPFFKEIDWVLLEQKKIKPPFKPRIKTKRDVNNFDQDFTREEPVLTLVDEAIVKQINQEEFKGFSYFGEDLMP

Sequence of Serine/threonine-protein kinase PAK 2 (Homo sapiens) (Q13177 whole entry): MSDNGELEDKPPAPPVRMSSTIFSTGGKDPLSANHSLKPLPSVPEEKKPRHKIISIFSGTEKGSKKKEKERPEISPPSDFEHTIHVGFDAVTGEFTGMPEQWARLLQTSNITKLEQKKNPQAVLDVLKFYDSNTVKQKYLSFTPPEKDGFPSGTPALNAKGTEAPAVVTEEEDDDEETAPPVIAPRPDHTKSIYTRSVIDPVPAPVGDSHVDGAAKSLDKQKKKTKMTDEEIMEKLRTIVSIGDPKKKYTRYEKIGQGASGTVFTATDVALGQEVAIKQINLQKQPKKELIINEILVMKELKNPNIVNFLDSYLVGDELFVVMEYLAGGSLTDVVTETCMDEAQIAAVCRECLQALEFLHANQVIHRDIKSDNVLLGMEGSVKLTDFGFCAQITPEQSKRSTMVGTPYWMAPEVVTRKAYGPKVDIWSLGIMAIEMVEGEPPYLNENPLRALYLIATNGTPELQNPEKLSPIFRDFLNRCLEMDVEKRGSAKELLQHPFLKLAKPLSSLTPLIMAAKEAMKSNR

inhibition [1]: 14%
fold change (FC) [3]: 0.77
fold change (FC) [4]: 0
inhibition [5]: 3%
fold change (FC) [6]: 0.43
fold change (FC) [7]: 0.23
SMILES: CNC(=O)c1ccccc1Oc1nc(Nc2cc(OC)c(OC)c(OC)c2)ncc1Br
fold change (FC) [2]: 0

inhibition [8]: 0%
fold change (FC) [9]: 0
inhibition [10]: 0%
inhibition [11]: 0%
fold change (FC) [12]: 0.03
SMILES: CC(C)[C@H](NC(=O)c1cc(-c2cnn3cc(-c4ccc(OCCN5CCCCC5)cc4)cnc23)cs1)C(F)(F)F

inhibition [13]: 7%
inhibition [14]: 31%
fold change (FC) [15]: 0.15
fold change (FC) [16]: 0
SMILES: O=C(N[C@@H](C1CC1)C(F)(F)F)c1cc(-c2cnn3cc(-c4ccc(F)cc4)cnc23)cs1
